The target in assay [1] is T1, NEP (neutral endopeptidase enzyme) (Rattus norvegicus, UniProt P07861).
T1 construct: from tissue; host or cells: kidney cortex membranes of male Sprague-Dawley rats
T1 sequence (P07861 1-750): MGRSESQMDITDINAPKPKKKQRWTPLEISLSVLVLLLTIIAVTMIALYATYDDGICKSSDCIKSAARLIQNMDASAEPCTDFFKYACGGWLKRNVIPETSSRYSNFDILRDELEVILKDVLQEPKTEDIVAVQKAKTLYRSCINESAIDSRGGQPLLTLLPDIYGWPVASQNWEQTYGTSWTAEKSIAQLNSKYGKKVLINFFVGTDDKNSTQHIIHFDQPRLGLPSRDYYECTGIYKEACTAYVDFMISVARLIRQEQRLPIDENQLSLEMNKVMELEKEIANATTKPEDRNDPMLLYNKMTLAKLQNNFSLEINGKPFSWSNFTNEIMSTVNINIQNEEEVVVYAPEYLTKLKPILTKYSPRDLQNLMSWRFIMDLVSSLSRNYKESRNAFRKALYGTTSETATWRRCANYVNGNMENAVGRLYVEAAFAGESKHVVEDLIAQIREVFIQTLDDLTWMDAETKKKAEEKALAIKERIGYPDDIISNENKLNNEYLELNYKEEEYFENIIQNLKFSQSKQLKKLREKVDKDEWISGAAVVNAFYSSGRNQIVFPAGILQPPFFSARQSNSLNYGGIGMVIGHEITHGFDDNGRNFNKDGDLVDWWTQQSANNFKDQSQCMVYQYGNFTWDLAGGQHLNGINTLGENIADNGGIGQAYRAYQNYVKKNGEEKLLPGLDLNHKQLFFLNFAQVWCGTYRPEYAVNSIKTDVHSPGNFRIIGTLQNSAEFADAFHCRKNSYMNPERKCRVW
Description: NEP-inhibitory activity in rat kidney cortex membranes ([3H][Leu5]-enkephaline degradation). It counts as biochemical. Conditions: in vitro, [3H][Leu5]-enkephaline 15 nM, 20 minutes at 30° C., pH 7.4. The procedure: a) NEP-inhibitory Activity
The NEP-inhibitory activity was evaluated in rat kidney cortex membranes prepared according to the procedure described by T. Maeda et al. in Biochim Biophys. Acta 1983, 731(1), 115-120.
Kidneys were removed from male Sprague-Dawley rats weighing approximately 300 g and kept at 4° C.
Kidney cortex was carefully removed, finely minced and suspended into a homogenization buffer (10 mM sodium phosphate pH 7.4 containing 1 mM MgCl2, 30 mM NaCl, 0.02% NaN3) 1:15 weight/volume.
The tissue was then cold homogenized for 30 seconds using an Ultra-Turrax homogenizer.
Approximately 10 ml of homogenate were layered over 10 ml of sucrose (41% weight/volume) and centrifuged at 31200 rpm for 30 minutes at 4° C. in a fixed angle rotor.
The membranes were collected from the buffer/sucrose interface, washed twice with 50 mM TRIS/HCl buffer (pH 7.4) and resuspended into the same buffer for the storage of aliquots at -80° C. until use.
The NEP-inhibitory activity was evaluated according to the method described by C. Llorens et aL, in Eur. J. Pharmacol., 69, (1981), 113-116, as reported hereinafter.
Aliquots of the membrane suspension prepared as above described (concentration 5 μg/ml of proteins) were preincubated in the presence of an aminopeptidase inhibitor (Bestatin--1 mM) for 10 minutes at 30° C. [^3 H][Leu^5 ]-enkephaline (15 nM) and buffer TRIS/HCl pH 7.4 (50 mM) were added in order to obtain a final volume of 100 μl.
The enzymatic reaction was stopped by adding HCl 0.1M (100 μl) after 20 minutes of incubation at 30° C.
The formation of the metabolite [^3 H]Tyr-Gly-Gly was quantified, after separation of the unreacted substrate by chromatography on polystyrene columns (Porapak Q), by measuring the relative radioactivity through liquid scintillation.
The percentage of inhibition of the metabolite formation in the membrane preparations treated with the compounds of formula I and with the comparative compounds with respect to the untreated membrane preparations was expressed as IC50 (nM) value.

The target in assay [2] is T2, ACE (angiotensin converting enzyme) (Oryctolagus cuniculus, UniProt P12822).
T2 construct: purchased SIGMA; host or cells: rabbit lung
T2 sequence (P12822 34-1310): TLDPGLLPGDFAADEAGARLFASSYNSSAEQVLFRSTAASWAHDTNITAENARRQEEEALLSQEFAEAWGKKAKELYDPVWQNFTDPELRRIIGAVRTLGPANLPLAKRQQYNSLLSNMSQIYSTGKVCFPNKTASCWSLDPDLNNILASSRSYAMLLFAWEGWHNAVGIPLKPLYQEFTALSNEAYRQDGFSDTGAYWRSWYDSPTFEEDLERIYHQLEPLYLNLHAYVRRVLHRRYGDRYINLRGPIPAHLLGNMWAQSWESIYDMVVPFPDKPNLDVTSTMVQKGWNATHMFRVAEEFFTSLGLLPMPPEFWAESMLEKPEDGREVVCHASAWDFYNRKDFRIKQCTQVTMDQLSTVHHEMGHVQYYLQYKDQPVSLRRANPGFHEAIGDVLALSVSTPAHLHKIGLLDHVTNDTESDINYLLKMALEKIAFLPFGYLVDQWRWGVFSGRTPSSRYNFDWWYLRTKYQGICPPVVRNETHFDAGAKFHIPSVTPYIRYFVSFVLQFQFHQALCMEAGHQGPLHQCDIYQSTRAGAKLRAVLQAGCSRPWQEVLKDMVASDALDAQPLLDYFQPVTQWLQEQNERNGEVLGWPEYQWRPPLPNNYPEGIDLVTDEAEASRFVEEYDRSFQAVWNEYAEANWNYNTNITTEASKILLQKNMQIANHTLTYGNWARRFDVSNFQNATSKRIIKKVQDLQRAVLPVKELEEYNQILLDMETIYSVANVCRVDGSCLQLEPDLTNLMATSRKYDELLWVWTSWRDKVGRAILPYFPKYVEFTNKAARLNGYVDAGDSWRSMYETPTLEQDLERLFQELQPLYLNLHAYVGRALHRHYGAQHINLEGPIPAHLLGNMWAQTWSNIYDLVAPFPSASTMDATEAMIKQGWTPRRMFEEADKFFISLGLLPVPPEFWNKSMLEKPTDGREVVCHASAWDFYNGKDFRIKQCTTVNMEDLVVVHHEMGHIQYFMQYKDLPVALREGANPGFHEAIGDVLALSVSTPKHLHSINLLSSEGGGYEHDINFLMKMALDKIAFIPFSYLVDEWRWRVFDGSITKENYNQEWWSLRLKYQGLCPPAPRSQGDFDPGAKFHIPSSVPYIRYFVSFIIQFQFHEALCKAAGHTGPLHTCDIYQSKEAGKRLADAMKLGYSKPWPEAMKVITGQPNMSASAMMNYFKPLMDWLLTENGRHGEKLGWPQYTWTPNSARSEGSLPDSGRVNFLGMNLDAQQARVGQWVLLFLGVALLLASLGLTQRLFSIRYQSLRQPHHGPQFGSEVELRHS
Description: ACE-inhibitory activity (FAPGG substrate, absorbance at 340 nm). It counts as biochemical. The conditions noted are these: in vitro, ACE purified from rabbit lung, 37° C. The procedure: b) ACE-inhibitory Activity
50 μM of ACE (250 μmU/ml purified by lung rabbit, EC 3.4.15.1 SIGMA) were preincubated with 50 μl of the compound of formula I or of the comparison compound or related vehicle in thermostated cuvettes at 37° C.
The reaction was started by adding 500 μl of furylacryloylphenylalanylglycylglycine 0.8 mM (FAPGG-SIGMA).
Contemporaneously, by using a Beckman DU-50 spectrophotometer provided with a program for calculating delta A/minutes and regression coefficients of the enzyme kinetics curyes, the absorbance at 340 nm was recorded in continuo for 5 minutes.
The percentage of inhibition in the preparations incubated with the compounds of formula I or with the comparative compounds with respect to the preparations incubated with the vehicle was expressed as IC50 (nM) value.

Molecules are shown by their SMILES.

On to `C[C@H](CS)C(=O)N1CCC[C@H]1C(=O)O` [Captopril, reference compound], for which the “NEP-inhibitory activity IC50 (nM)” value in assay [1] is on record as “not active”. Take `O=C(N[C@@H](Cc1cscn1)C(=O)O)C(CS)Cc1ccccc1` (stereo partly drawn) [compound 4, N-(2-phenylmethyl-3-mercaptopropionyl)-(4-thiazolyl)-L-alanine]: the IC50 (as a rule, the concentration that inhibits the measured activity by half) in assay [2] was found to be 12 nM; in assay [1] it was 4.7 nM. With `O=C(N[C@@H](Cc1cccs1)C(=O)O)C(CS)Cc1ccccc1` (stereo partly drawn) [compound 5, N-(2-phenylmethyl-3-mercaptopropionyl)-(2-thienyl)-L-alanine], the figures for the IC50 in assay [2] and in assay [1] were 6.5 nM and 5.5 nM, respectively.

As for `O=C(N[C@@H](Cc1ccccn1)C(=O)O)C(CS)Cc1ccccc1` (stereo partly drawn) [compound 6, N-(^2-phenylmethyl-3-mercaptopropionyl)-(2-pyridyl)-L-alanine], the values for the IC50 in assay [2] and in assay [1] were 23 nM and 7.1 nM, respectively.

Source of the values: patent US6166051A, “Thiol derivatives with metallopeptidase (ACE/NEP) inhibitory activity” (Zambon Group S.p.A., priority 1995, dated 2000).
